Where two headings read alike, the source gives them in different places.
Legend:
steroid sulfatase [1] = target: T1, steroid sulfatase (Homo sapiens, UniProt P08842); settings: qualitative statement on prior art compounds; cited from earlier work
T1 sequence (P08842 22-583): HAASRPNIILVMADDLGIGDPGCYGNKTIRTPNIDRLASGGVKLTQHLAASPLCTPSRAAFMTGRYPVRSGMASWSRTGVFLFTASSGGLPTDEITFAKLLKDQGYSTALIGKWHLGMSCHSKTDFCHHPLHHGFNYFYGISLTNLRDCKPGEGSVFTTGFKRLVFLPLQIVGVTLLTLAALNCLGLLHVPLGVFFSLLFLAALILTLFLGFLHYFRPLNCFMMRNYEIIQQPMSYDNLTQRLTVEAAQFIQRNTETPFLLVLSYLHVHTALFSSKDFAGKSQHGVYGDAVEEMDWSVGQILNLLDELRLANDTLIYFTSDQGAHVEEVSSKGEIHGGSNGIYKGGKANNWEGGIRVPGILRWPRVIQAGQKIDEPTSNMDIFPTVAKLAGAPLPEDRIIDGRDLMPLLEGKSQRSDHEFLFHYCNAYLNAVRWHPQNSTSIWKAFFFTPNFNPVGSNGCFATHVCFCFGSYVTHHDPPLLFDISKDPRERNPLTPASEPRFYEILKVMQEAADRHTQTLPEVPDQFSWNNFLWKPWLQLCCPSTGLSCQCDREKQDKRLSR

[2] = qualitative statement on prior art compounds; cited from earlier work
steroid sulfatase [3] = target: T1, steroid sulfatase; test: In vitro inhibitory effect on steroid sulfatase (intact MCF-7 cells, [3H]estrone 3-sulfate hydrolysis); type: cell-based; set-up: Six-well plates (9.4 cm^2/well) were inoculated with intact MCF-7 human breast cancer cells; endogenous in cells; host or cells: MCF-7 human breast cancer cells; settings: MCF7; 3 × 10^−9 M test compound; intact MCF-7 human breast cancer cells; 37° C., 20 hours; read-out: Inhibitory rate (3 × 10^−9 M. %)
Protocol: (1) Measurement of an In vitro Inhibitory Effect on Steroid Sulfatase
Six-well plates (9.4 cm^2/well) were inoculated with intact MCF-7 human breast cancer cells at a density of about 1×10^5 cells/well. Using Dulbecco's modified Eagle medium (DMEM) containing 10 mM HEPES, 5% fetal bovine serum, 0.011% sodium pyruvate and 0.37% sodium bicarbonate, the cells were grown to 80% confluency.
The plates were washed with Earle's balanced salt solution (EBSS from Life Technologies Inc., Grand Island, N.Y., USA). Then, serum-free DMEM (2 ml) containing 4 pmol (4.4×10^5 dpm) of [6,7-^3H]estrone 3-sulfate (with a specific activity of 49 Ci/mmol; from New England Nuclear, Boston, Mass., USA), together with a test compound, was placed on each plate and incubated at 37° C. for 20 hours. After incubation, the plate was cooled, and the medium (1 ml) was pipetted into a separating tube containing [4-^14C]estrone (6×10^3 dpm) (with a specific activity of 52.5 mCi/mmol; from New England Nuclear, Boston, Mass., USA). This mixture, together with toluene (4 ml), was vigorously shaken for 30 seconds. It was shown by experiment that more than 90% of [4-^14C]estrone was removed from the aqueous layer by this treatment. A portion (2 ml) of the organic phase was taken, and the ^3H and ^14C contents thereof were measured by scintillation spectrometry. Then, the amount of estrone 3-sulfate hydrolyzed was calculated from the total 3H count (corrected for the volumes of the medium used and the organic phase, and for the recovery of the [^14C]estrone added) and the specific activity of the substrate.

steroid sulfatase [4] = target: T2, steroid sulfatase (Rattus norvegicus, UniProt P15589); test: In vivo inhibitory effect on steroid sulfatase (rat liver and uterus homogenates after 5 days of dosing); settings: po, once a day for 5 days, female SD rats, 4 hours after final administration
T2 construct: the liver and the uterus were excised from each rat; from tissue; host or cells: rat liver and uterus homogenate (2,000 x g supernatant) after 5 days of dosing
T2 sequence (P15589 20-577): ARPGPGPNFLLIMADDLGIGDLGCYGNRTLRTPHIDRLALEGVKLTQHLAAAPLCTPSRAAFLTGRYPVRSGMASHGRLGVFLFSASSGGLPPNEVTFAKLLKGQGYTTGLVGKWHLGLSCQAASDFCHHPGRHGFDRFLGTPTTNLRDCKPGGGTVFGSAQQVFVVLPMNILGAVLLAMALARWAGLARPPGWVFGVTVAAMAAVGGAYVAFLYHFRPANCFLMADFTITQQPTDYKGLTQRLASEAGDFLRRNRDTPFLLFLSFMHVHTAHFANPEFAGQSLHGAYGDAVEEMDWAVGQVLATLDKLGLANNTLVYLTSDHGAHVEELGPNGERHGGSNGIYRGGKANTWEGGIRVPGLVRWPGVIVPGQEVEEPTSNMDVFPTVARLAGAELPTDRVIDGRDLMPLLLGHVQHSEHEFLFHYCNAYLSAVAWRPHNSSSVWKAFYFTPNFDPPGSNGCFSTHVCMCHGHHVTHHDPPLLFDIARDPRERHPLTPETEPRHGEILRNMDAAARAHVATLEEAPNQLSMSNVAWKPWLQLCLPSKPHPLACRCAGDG
Description: (2) Measurement of an In vivo Inhibitory Effect on Steroid Sulfatase
A test compound was suspended in a 0.5% polyoxyethylene (20) sorbitan monooleate solution (Tween 80) and administered, once a day, to a group of 5 female SD strain rats (weighing 168-194 g) for 5 days.
Four hours after the final administration, all rats were sacrificed by ether anesthesia and dissected. Thus, the liver and the uterus were excised from each rat, washed once with cold phosphate-buffered saline (PBS, pH 7.4), and preserved at −70° C. or below. Each of the liver and the uterus was finely minced with scissors, and suspended in PBS containing 250 mM sucrose (5 ml/g tissue). Under cooling with ice, each suspension was homogenized with an Ultra-Turrax homogenizer. The resulting homogenate was centrifuged (at 4° C.) at 2,000×g for 30 minutes to remove nuclei and cell debris, and the protein concentration in this supernatant was measured according to the method of Bradford [Anal. Biochem. 72, 248-254(1976)].
The homogenate in an amount corresponding to a protein concentration of 100-500 μg/ml was mixed with [6,7-^3H]estrone 3-sulfate (with a specific activity of 49 Ci/mmol; from New England Nuclear, Boston, Mass., USA) in an amount corresponding to a substrate concentration of 20 μM. This mixture was diluted with PBS to a total volume of 1 ml, and incubated at 37° C. for 30 minutes. After incubation (1 ml), the steroid sulfatase activity was determined in the same manner as described above for the in vitro measurement (1).

[5] = liver, read-out: Inhibitory rate (0.5 mg/kg, p.o., %) Liver
[6] = uterus, read-out: Inhibitory rate (0.5 mg/kg, p.o., %) Uterus

Row | Compound | inhibitory effect on steroid sulfatase (steroid sulfatase [1]) | estrogenic action [2] | inhibition at 0.003 µM (steroid sulfatase [3]) [%] | inhibition at 0.5 mg/kg (steroid sulfatase [4]; [5]) [%] | inhibition at 0.5 mg/kg (steroid sulfatase [4]; [6]) [%]
1 | Cc1cc(=O)oc2cc(OS(N)(=O)=O)ccc12 [COUMATE, 4-methylcoumarin 7-sulfamate] | weak | do not show an estrogenic action |  |  | 
2 | C[C@]12CC[C@@H]3c4ccc(OS(N)(=O)=O)cc4CC[C@H]3[C@@H]1CCC2=O [EMATE, estrone 3-sulfamate] | powerful inhibitory effect | powerful estrogenic action |  |  | 
3 | NS(=O)(=O)Oc1ccc(-c2ccc([N+](=O)[O-])cc2[N+](=O)[O-])cc1 [Example 23, 2′,4′-dinitrobiphenyl-4-yl sulfamate] |  |  | 67 |  | 
4 | N#Cc1cc([N+](=O)[O-])ccc1-c1ccc(OS(N)(=O)=O)cc1 [Example 25, 2′-cyano-4′-nitrobiphenyl-4-yl sulfamate] |  |  | 87 | 99.5 | 100
5 | NS(=O)(=O)Oc1ccc(-c2ccccc2[N+](=O)[O-])cc1 [Example 1, 2′-nitrobiphenyl-4-yl sulfamate] |  |  |  | 91.2 | 94.9
6 | N#Cc1ccccc1-c1ccc(OS(N)(=O)=O)cc1 [Example 3, 2′-cyanobiphenyl-4-yl sulfamate] |  |  | 76 | 95.4 | 93.8
7 | NS(=O)(=O)Oc1ccc(-c2ccc([N+](=O)[O-])cc2)cc1 [Example 16, 4′-nitrobiphenyl-4-yl sulfamate] |  |  |  | 97 | 100
8 | NS(=O)(=O)Oc1ccc(-c2ccc(OS(N)(=O)=O)cc2)cc1 [Example 21, biphenyl-4,4′-diyl disulfamate] |  |  |  | 97.2 | 97.6
9 | CCCCCCCCCCCCCC(=O)NCCc1ccc(OS(N)(=O)=O)cc1 [DU-14, 4-(2-myristoylaminoethyl)phenyl sulfamate] | weak | do not show an estrogenic action |  |  | 
10 | N#Cc1ccc(-c2ccc(OS(N)(=O)=O)cc2)c(C#N)c1 [Example 27, 2′,4′-dicyanobiphenyl-4-yl sulfamate] |  |  | 94 |  | 
11 | N#Cc1ccc(N(Cc2ccc(OS(N)(=O)=O)cc2)n2cnnc2)cc1 [Example 38, 4-[N-(4-cyano-phenyl)-N-(1,2,4-triazol-4-yl)aminomethyl]phenyl sulfamate] |  |  |  | 85.3 | 79

— US6762205B1, “Phenyl sulfamate derivatives” (Teikoku Hormone Mfg. Co., Ltd., priority 1999, dated 2004)
